Test system: NRK-52E cells
Assay: High content imaging of lysosomes and nuclei (LysoView 633 / SYTO 16)
Format: cell-based, rat
Procedure: For high content imaging, NRK-52E and RPTEC/TERT1 cells were cultivated in µ-clear half well area microtiter plates (Greiner) according to the protocol described for the cytotoxicity assay with slight modification. Briefly, NRK-52E cells were seeded at 5,000 cells in 100 µL growth medium per well and were incubated under standard growth conditions for 48 h prior to treatment. RPTEC/TERT1 cells were seeded at 15,000 cells in 100 µL growth medium per well and incubated under standard growth conditions for 7–8 days, until cells reached confluence and started to differentiate. This was indicated by the formation of three-dimensional structures referred to as domes which were identified by regular microscopic inspection of the plates. Only differentiated cell cultures with detectable domes were assayed. Cells of both cell lines were treated with serially diluted Polymyxin B sulfate (concentration range 7.8 to 2,000 µM) for 1, 2, 4, 6, or up to 24 h. The assay was carried out on three biological replicates defined as three different non-consecutive passages of the cell culture. Each biological replicate at each treatment concentration was assayed in triplicate wells per plate.
Following treatment, cells were stained with two different combinations of fluorescent dyes: NRK-52E cells with 50 pg/μL LysoView™ 633 (Biotium) and 1 µM SYTO 16 (Thermo Scientific), respectively, for lysosomes and nuclei; RPTEC/TERT1 cells with 10 nM LysoTracker™ Red (Thermo Scientific) and 10 ng/μL Hoechst 33342 (Merck-Sigma Aldrich), respectively, for lysosomes and nuclei. For each cell line a staining solution was obtained by mixing the lysosomes and nuclei dyes in cell culture medium at the concentrations indicated above. […]
Images were acquired with a fully automated fluorescence confocal Opera™ QEHS system (PerkinElmer, United Kingdom) using a ×40 air UPlanApo objective (Olympus) with 0.85 numerical aperture. […]
The images were analyzed by custom-made image analysis scripts either with the imaging analysis software Acapella (version 2.8 PerkinElmer) or Columbus (version 2.4.0 PerkinElmer). […]

Polymyxin B
Treatment time at which changes in nuclei area and nuclei intensity appeared (NRK-52E, 250 µM): 20 h
Treatment time at which lysosomal effects with nuclear changes first appeared (NRK-52E, 500 µM): 12 h
Treatment time from which lysosomal effects were accompanied by nuclear changes (NRK-52E, 1,000 and 2000 µM): 8 h

— article PMC9061999, “Application of the Adverse Outcome Pathway Concept to In Vitro Nephrotoxicity Assessment: Kidney Injury due to Receptor-Mediated Endocytosis and Lysosomal Overload as a Case Study” (Frontiers in Toxicology, 2022)
